In patent US7329655B2, “Nitrogenous heterocyclic compounds” (Millennium Pharmaceuticals, Inc., priority 2000, dated 2008) one finds IC50 data, which are given here for 2 compounds.

In experiment [1] the target is T1, endogenous β-PDGFR (Homo sapiens, UniProt P09619).
T1 construct: This assay is for measuring endogenous β-PDGFR phosphorylation in MG63 cells; host or cells: MG63 human osteosarcoma cells
Nature of the experiment: MG63 phosphorylation assay. The conditions noted are these: MG63 human osteosarcoma cells, PDGF-BB stimulation in the presence of 45% human plasma; inhibition of PDGF receptor phosphorylation; read-out: MG63 w/human plasma IC50. It is filed as cell-based.

In experiment [2] the target is T2, human β-PDGFR (Homo sapiens, UniProt P09619).
T2 construct: host or cells: CHO cells (HR5 line)
The experiment can be described thus: HR5 phosphorylation assay. Type of experiment: cell-based. The conditions noted are these: HR5 cells (CHO overexpressing human β-PDGFR), 8 nM PDGF BB; inhibition of PDGF receptor phosphorylation. As for the experimental part:
The HR5 cell line is a cell line of CHO cells engineered to overexpress human β-PDGFR, which cell line is available from the ATCC. The expression level of β-PDGFR in HR5 cells is around 5×10^4 receptor per cell. For the phosphorylation assay according to the invention, HR5 cells were grown to confluency in 96-well microtiter plates under standard tissue culture conditions, followed by serum-starvation for 16 hours. Quiescent cells were incubated at 37° C. without or with increasing concentrations of the test compound (0.01-30 uM) for 30 minutes followed by the addition of 8 nM PDGF BB for 10 minutes. Cells were lysed in 100 mM Tris, pH 7.5, 750 mM NaCl, 0.5% Triton X-100, 10 mM sodium pyrophosphate, 50 mM NaF, 10 ug/ml aprotinin, […] leupeptin, 1 mM phenylmethylsulfonyl fluoride, 1 mM sodium vanadate, and the lysate was cleared by centrifugation at 15,000×g for 5 minutes. Clarified lysates were transferred into a second microtiter plate in which the wells were previously coated with 500 ng/well of 1B5B11 anti-β-PDGFR mAb, and then incubated for two hours at room temperature. […] Wells were washed prior to adding ABTS (Sigma), and the rate of substrate formation was monitored at 650 nm. […]

T1 sequence (P09619 33-1106): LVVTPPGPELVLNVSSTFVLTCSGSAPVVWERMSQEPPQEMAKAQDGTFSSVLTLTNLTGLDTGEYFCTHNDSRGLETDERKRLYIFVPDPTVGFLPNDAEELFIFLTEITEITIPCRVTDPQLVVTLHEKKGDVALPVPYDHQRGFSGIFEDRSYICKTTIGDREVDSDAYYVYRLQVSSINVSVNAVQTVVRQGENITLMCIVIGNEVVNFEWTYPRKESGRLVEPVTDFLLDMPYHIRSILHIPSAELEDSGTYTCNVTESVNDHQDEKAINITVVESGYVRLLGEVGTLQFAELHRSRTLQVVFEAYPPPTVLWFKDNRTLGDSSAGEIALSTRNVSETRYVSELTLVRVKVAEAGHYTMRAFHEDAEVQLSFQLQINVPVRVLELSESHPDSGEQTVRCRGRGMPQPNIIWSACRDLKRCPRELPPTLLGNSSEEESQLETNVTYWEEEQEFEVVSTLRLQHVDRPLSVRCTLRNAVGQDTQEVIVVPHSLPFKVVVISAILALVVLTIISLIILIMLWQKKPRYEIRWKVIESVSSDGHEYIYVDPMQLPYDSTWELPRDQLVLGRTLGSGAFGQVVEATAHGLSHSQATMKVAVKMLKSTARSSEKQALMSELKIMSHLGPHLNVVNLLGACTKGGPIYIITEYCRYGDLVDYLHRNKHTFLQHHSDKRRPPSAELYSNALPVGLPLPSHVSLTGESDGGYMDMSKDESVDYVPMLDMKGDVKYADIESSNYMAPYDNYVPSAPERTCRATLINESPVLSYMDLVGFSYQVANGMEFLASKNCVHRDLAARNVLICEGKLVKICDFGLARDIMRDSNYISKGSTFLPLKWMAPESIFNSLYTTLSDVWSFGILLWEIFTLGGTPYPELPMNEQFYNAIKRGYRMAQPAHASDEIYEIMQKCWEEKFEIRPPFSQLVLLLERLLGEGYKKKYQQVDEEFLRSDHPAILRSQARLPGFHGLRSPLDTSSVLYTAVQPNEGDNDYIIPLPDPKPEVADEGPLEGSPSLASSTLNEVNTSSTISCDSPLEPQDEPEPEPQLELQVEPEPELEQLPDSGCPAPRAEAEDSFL
T2 sequence (P09619 33-1106): as above

As to `COc1cc2c(N3CCN(C(=S)NCc4ccc5c(c4)OCO5)CC3)ncnc2cc1OCCN1CCCCC1` [Example 1], the IC50 in experiment [1] was 129 nM; in experiment [2], 50 nM.
For `COc1cc2c(N3CCN(C(=S)NCc4cnc(C)cn4)CC3)ncnc2cc1OCCN1CCCCC1` [Example 2, {4-[6-methoxy-7-(2-piperidylethoxy)quinazolin-4-yl]piperazinyl}{[(5-methylpyrazin-2-yl)methyl]amino}methane-1-thione], the IC50 in experiment [1] came out at 47 nM; in experiment [2], 20 nM.
